Laboratory results: patent US20230152317A1, “DIAGNOSIS AND TREATMENT OF COVID-19” (priority 2020, published 2023)

What was measured:
COVID-19 patients = details: anticoagulant treatment, reference 49; cited from earlier work
[1] = system: human pulmonary microvascular endothelial cells (hPMVEC); assay: Basal intracellular nitric oxide production in hPMVEC (DAF-FM fluorescence) after hyaluronidase treatment
Procedure: Isolation and culture of human pulmonary microvascular endothelial cells (hPMVEC): hPMVEC were isolated from resected human lung as previously described (35, 36). Briefly, human peripheral lung tissue was finely minced, and digested in 0.3% type II collagenase at 37° C. The digested suspension was filtered, centrifuged, and washed in PBS. Endothelial cells were then isolated using magnetic Dynabeads coated with anti-human CD31 antibody. Isolated cells were resuspended in EGM-2 (Lonza #CC-3162) with 10% fetal bovine serum and placed at 37° C. in 5% CO2 until 50% confluent, then harvested and re-purified using anti-CD31-coated magnetic microbeads as above. PMVEC were propagated in EGM-2+10% FBS and 20 mM HEPES on fibronectin-coated flasks and passages 4-9 used.
Hyaluronidase treatment of hPMVEC: PMVEC (2.5×10^4/well) were plated on fibronectin-coated 4-well plates in EGM-2+10% FBS and 20 mM HEPES. After 2 days, media was changed to HBSS (+100 mM HEPES, no bicarb)+0.01% BSA and hPMVEC were treated for 1 h with hyaluronidase (0.5 mg/mL; Sigma #H3506). Following treatment, hPMVEC were loaded with a nitric oxide-sensitive fluorochrome (2 μM DAF-FM DA (Thermo Fisher #D23844) for 1h before lysing with 0.5% SDS in PBS. After centrifugation for 10 min at 1×10^4RCF, the fluorescence of triplicate aliquots of supernatant were measured using a Victor3 multilabel fluorescence microplate reader (Wallac Oy; Perkin Elmer, Inc.) at 485/520 for DAF-FM. The nitric oxide donor DETA NONOate (20 μM; Cayman #82120) was used as the positive control.

Molecule: low molecular weight heparin
- overall survival advantage (COVID-19 patients): did not confer an overall survival advantage

Molecule: NCCN(CCN)/[N+]([O-])=N/O [DETA NONOate]
- increase of nitric oxide production ([1]; positive control at 20 μM, compared to untreated controls (data not shown)): 16%

Molecule: Hyaluronidase
- decrease of basal intracellular nitric oxide production ([1]; hyaluronidase 0.5 mg/mL for 1 h, compared to untreated PMVEC, n=5 separate experiments, P=0.008): 98%
- basal intracellular nitric oxide production after treatment (DAF-FM fluorescence) ([1]; hyaluronidase 0.5 mg/mL for 1 h, n=5 separate experiments): 64±87.5 RFUs
